Reference: paper PMC10135263 (Antibiotics, 2023)

Experiments:
[1] = Difference of pharmacokinetic parameters between intravenous microdialysis and standard plasma sampling; details: intravenous microdialysis minus standard plasma, mean (95% confidence interval)
Description: (§1) For the data analysis, the microdialysate concentrations were attributed to the midpoint of the sampling interval. The pharmacokinetic parameters and statistical analysis were performed using STATA (v. 17.0 StataCorp, College Station, TX, USA) for continuous intravenous microdialysis samples and standard plasma samples separately. […] AUC was calculated using the linear-up/log-down method. Cmax was calculated as the maximum of all the concentrations and Tmax as the time to reach Cmax. For comparison between the two sampling methods, the difference of pharmakokinetic parameters between methods is calculated including 95% confidence intervals. The Kenward–Roger approximation method was used due to small sample size, as a correction for degrees of freedom. Model assumptions were tested by visual diagnosis of residuals, fitted values, and estimates of random effects.

[2] = Pharmacokinetics from continuous intravenous microdialysis sampling (subclavian vein), free unbound concentrations; details: vancomycin 1 g iv infused over 100 min, co-administered with meropenem, eight female pigs, mean (95% confidence interval)
Description: In the microdialysis system, complete equilibrium will not occur across the semipermeable membrane, due to the constant flow. As such, the obtained concentration in the dialysates represents a fraction of the actual concentration. This fraction is referred to as the relative recovery, and it is essential to calculate to determine the absolute concentration of an analyte. In this study, calibration using retrodialysis by drug was used. Relative recovery was calculated by the following equation:(1) Relative recovery %=100 ·1−Cdialysate/Cperfusate
(2) Cplasma=100 ·Cdialysate/Relative recovery %
All the microdialysis equipment was acquired from M Dialysis AB (Stockholm, Sweden), and consisted of 67 Intravenous Microdialysis Catheters with a membrane length of 30 mm, a 20 kD cut-off, and 107 Microdialysis pumps set at a flow rate of 1 μL/min.
(§2) Eight female pigs, Danish Landrace Breed, weight 78–82 kg, were included. […] Intravenous microdialysis catheters were inserted into the left subclavian vein, guided by ultrasound and using a peripheral venous introducer. On the opposite side of the throat, a central venous catheter was placed for standard plasma sampling (Figure 3). At the end of the sampling period, all pigs were euthanized by intravenous injection of pentobarbital.
After placement, the intravenous microdialysis catheters were perfused with 0.9% NaCl followed by a 20 min tissue equilibrium period. […]
A 3 µL sample volume was introduced into the UHPLC system with a C18 column and further analyzed with mass spectrometry. […]
For the data analysis, the microdialysate concentrations were attributed to the midpoint of the sampling interval. […] AUC was calculated using the linear-up/log-down method. Cmax was calculated as the maximum of all the concentrations and Tmax as the time to reach Cmax. For comparison between the two sampling methods, the difference of pharmakokinetic parameters between methods is calculated including 95% confidence intervals. […]

[3] = Pharmacokinetics from standard plasma sampling (central venous catheter), free unbound concentrations; details: vancomycin 1 g iv infused over 100 min, co-administered with meropenem, eight female pigs, standard plasma samples, mean (95% confidence interval)
From the text: as §2
After placement, the intravenous microdialysis catheters were perfused with 0.9% NaCl followed by a 20 min tissue equilibrium period. […] Dialysates were collected during an 8 h sampling period every 30 min from time 0 to 240 min and every 60 min from time 240 to 480 min, resulting in 12 dialysates per pig. Plasma samples, each containing approximately 4 mL, were collected from the central venous catheter in the middle of every dialysate sampling interval to EDTA tubes. […] After a 30 min equilibrium period, one calibration sample was collected over a 40 min interval. Collected plasma samples were stored at 5 °C for a maximum of 6 h before being centrifuged at 3000× g for 10 min. Dialysates and plasma samples were frozen at −80 °C until analysis.
The principle of this analysis is that (in competition) the free drug competes with a drug–enzyme conjugate for the antibody (File S1). […] Meropenem was quantified using ultra-high-performance liquid chromatography (UHPLC). Quantification was performed after ultrafiltration of the plasma samples using a centrifree ultrafiltration device with a nominal molecular weight limit of 30 kDa (Millipore). Some 5 µL of the filtrate was prepared for analysis.
as §1

SMILES | Tmax, difference between methods ([1]; meropenem) | Tmax ([2]; intravenous microdialysis samples, concentrations attributed to midpoint of sampling interval) | T1/2 ([2]; intravenous microdialysis samples) | Cmax ([2]; intravenous microdialysis, 1 μL/min, UHPLC-MS/MS, recovery-corrected) | T1/2, difference between methods ([1]; vancomycin) | Tmax, difference between methods ([1]; vancomycin) | Cmax ([3]; homogeneous enzyme immunoassay) | AUC0–8h ([3]; homogeneous enzyme immunoassay, non-compartmental) | T1/2 [3] | Tmax [3]
C[C@@H](O)[C@H]1C(=O)N2C(C(=O)O)=C(S[C@@H]3CN[C@H](C(=O)N(C)C)C3)[C@H](C)[C@H]12 [Meropenem, meropenem] | 5 (−8; 18) min | – | – | – | – | – | – | – | – | –
CN[C@H](CC(C)C)C(=O)N[C@H]1C(=O)N[C@@H](CC(N)=O)C(=O)N[C@H]2C(=O)N[C@H]3C(=O)N[C@H](C(=O)N[C@H](C(=O)O)c4cc(O)cc(O)c4-c4cc3ccc4O)[C@H](O)c3ccc(c(Cl)c3)Oc3cc2cc(c3O[C@@H]2O[C@H](CO)[C@@H](O)[C@H](O)[C@H]2O[C@H]2C[C@](C)(N)[C@H](O)[C@H](C)O2)Oc2ccc(cc2Cl)[C@H]1O [Vancomycin, vancomycin] | – | 110 (97; 123) min | 242 (162; 322) min | 14 (2; 26) µg/mL | 45 (−55; 146) min | 25 (4.3; 46) min | 36 (24; 49) µg/mL | 7014 (5779; 8249) min µg/mL | 197 (124; 270) min | 85 (72; 98) min
